Earlier results as cited in US9272036B2, “Carbon dioxide, saline and additional active nasal delivery methods and treatments” (CLOVER HILL HEALTHCARE, INC., priority 2012, dated 2016).

Test system: subjects with SAR

Question: With `O=C=O` [CO(2), carbon dioxide] as the compound, how does the “histamine levels in ipsilateral nasal secretions” value (after pretreatment with CO(2), increased significantly with sham treatment) read?
Answer: did not increase

Question: What about the “sensation reported by subjects during exposure” value (during 20-second intranasal exposure) of the same compound?
Answer: transient burning sensation

Question: What about the ipsilateral secretion weights (nasal allergen challenge 30 minutes after 20-second CO(2) exposure, compared with no treatment) of the same compound?
Answer: numerically reduced

Question: And the “bilateral runny nose symptoms” value (nasal allergen challenge 30 minutes after 20-second CO(2) exposure, compared with no treatment, p=0.01)?
Answer: significant reduction

Question: What about the “contralateral secretion weights (reflex secretory response, primary outcome)” value (nasal allergen challenge 30 minutes after 20-second CO(2) exposure, compared with no treatment, p=0.04) of the same compound?
Answer: significant reduction

Question: And the sneezes (nasal allergen challenge (grass or ragweed) 30 minutes after 20-second CO(2) exposure, compared with no treatment, p=0.05)?
Answer: significant reduction

Question: And the “acute response to allergen challenge (overall)” value (treatment with nasal CO(2))?
Answer: partial reduction
